Measurements from article PMC6232652 (Computational and Structural Biotechnology Journal, 2018).

What was measured:
HepG2 cells = assay: MTT cytotoxicity assay, HepG2; assay type: cell-based; conditions: Homo sapiens, HepG2, 72 h, read-out: IC50 HepG2, MTT, 72 h, mean ± SD
A549 cells [1] = assay: MTT cytotoxicity assay, A549; assay type: cell-based; conditions: Homo sapiens, A549, 72 h, read-out: IC50 A549, MTT, 72 h, mean ± SD
MCF-7 cells = assay: MTT cytotoxicity assay, MCF-7; assay type: cell-based; conditions: Homo sapiens, MCF7, 72 h, read-out: IC50 MCF-7, MTT, 72 h, mean ± SD
[2] = previous investigation; cited from earlier work
EGFR = conditions: read-out: IC50 (EGFR); previous investigation; cited from earlier work
A549 cells [3] = assay: Cell cycle analysis by flow cytometry; conditions: 12 h, 4.20 μM 14d, 5.38 μM 19b; for Freq Sub-G1: control 0.07; for Freq G2 (percentage of cells in G2/M phase): control 18.21; for Freq S: control 32.62; for Freq G1: control 48.59
A549 cells [4] = assay: Acridine orange; assay type: cell-based; conditions: 12 h, 4.20 μM 14d, 5.38 μM 19b

SMILES | IC50 (HepG2 cells) [µM] | IC50 (A549 cells [1]) [µM] | IC50 (MCF-7 cells) [µM] | also measured
COc1cc2ncnc(Nc3ccc(F)c(Cl)c3)c2cc1NC(=O)N/N=C/c1ccc(C)s1 [11c, (E)-N-(4-((3-chloro-4-fluorophenyl)amino)-7-methoxyquinazolin-6-yl)-2-((5-methylthiophen-2-yl)methylene)hydrazine carboxamide] | 27.4 ± 1.03 | 29.3 ± 0.36 | 28.1 ± 1.13 | 
Cc1ccc(/C=N/NC(=O)Nc2cc3c(Nc4ccc(F)c(Cl)c4)ncnc3cc2O[C@H]2CCOC2)o1 [10b, (S,E)-N-(4-((3-Chloro-4-fluorophenyl)amino)-7-((tetrahydrofuran-3-Yl)Oxy)quinazolin-6-Yl)-2-((5-methylfuran-2-Yl)methylene)hydrazine carboxamide] | 33.2 ± 1.46 | 28.2 ± 1.34 | 34.8 ± 1.01 | 
CCc1ccc(/C=N/NC(=O)Nc2cc3c(Nc4ccc(F)c(Cl)c4)ncnc3cc2OC)s1 [11d, (E)-N-(4-((3-chloro-4-fluorophenyl)amino)-7-methoxyquinazolin-6-yl)-2-((5-ethylthiophen-2-yl)methylene)hydrazine carboxamide] | 35.2 ± 1.08 | 35.3 ± 0.42 |  | 
Cc1ccc(/C=N/NC(=O)Nc2cc3c(Nc4ccc(F)c(Cl)c4)ncnc3cc2O[C@H]2CCOC2)s1 [10c, (S,E)-N-(4-((3-chloro-4-fluorophenyl)amino)-7-((tetrahydrofuran-3-yl)oxy)quinazolin-6-yl)-2-((5-methylthiophen-2-yl)methylene)hydrazine carboxamide] | 29.2 ± 1.43 | 28.4 ± 0.56 | 26.1 ± 1.33 | 
O=C(N/N=C/c1ccc(O)cc1)Nc1cc2c(Nc3ccc(F)c(Cl)c3)ncnc2cc1O[C@H]1CCOC1 [BMC201725-9o, (S,E)-N-(4-((3-chloro-4-fluorophenyl)amino)-7-((tetrahydrofuran-3-yl)oxy)quinazolin-6-yl)-2-(4-hydroxybenzylidene)hydrazine carboxamide] |  |  |  | solubility [2]: unsatisfactory solubility; IC50 (EGFR): 0.056 µM
COc1cc2ncnc(Nc3ccc(F)c(Cl)c3)c2cc1NC(=O)N/N=C/c1ccco1 [11a, (E)-N-(4-((3-chloro-4-fluorophenyl)amino)-7-methoxyquinazolin-6-yl)-2-(furan-2-ylmethylene)hydrazine carboxamide] | 29.7 ± 1.86 | 26.2 ± 1.23 |  | 
O=C(N/N=C/c1ccco1)Nc1cc2c(Nc3ccc(F)c(Cl)c3)ncnc2cc1O[C@H]1CCOC1 [10a, (S,E)-N-(4-((3-chloro-4-fluorophenyl)amino)-7-((tetrahydrofuran-3-yl)oxy)quinazolin-6-yl)-2-(furan-2-ylmethylene)hydrazine carboxamide] | 35.2 ± 1.53 |  | 33.4 ± 0.97 | 
COc1cc2ncnc(Nc3ccc(F)c(Cl)c3)c2cc1NC(=O)N/N=C/c1ccc(C)o1 [11b, (E)-N-(4-((3-chloro-4-fluorophenyl)amino)-7-methoxyquinazolin-6-yl)-2-((5-methylfuran-2-yl)methylene)hydrazine carboxamide] | 30.2 ± 1.16 | 28.2 ± 1.34 | 35.2 ± 81 | 
CN(C)CCn1cccc1/C=N/NC(=O)Nc1cc2c(Nc3ccc(F)c(Cl)c3)ncnc2cc1O[C@H]1CCOC1 [19b, (S,E)-N-(4-((3-chloro-4-fluorophenyl)amino)-7-((tetrahydrofuran-3-yl)oxy)quinazolin-6-yl)-2-((1-(2-(dimethylamino)ethyl)-1H-pyrrol-2-yl)methylene)hydrazine carboxamide] |  |  |  | Freq Sub-G1 (A549 cells [3]): 0.05%; Freq G2 (percentage of cells in G2/M phase) (A549 cells [3]): 22.31%; Freq S (A549 cells [3]): 43.84%; Freq G1 (A549 cells [3]): 33.23%; Morphologic changes of A549 cells (AO staining), apoptosis (A549 cells [4]): can induce A549 cell apoptosis
CCc1ccc(/C=N/NC(=O)Nc2cc3c(Nc4ccc(F)c(Cl)c4)ncnc3cc2O[C@H]2CCOC2)s1 [10d, (S,E)-N-(4-((3-chloro-4-fluorophenyl)amino)-7-((tetrahydrofuran-3-Yl)oxy)quinazolin-6-Yl)-2-((5-ethylthiophen-2-Yl)methylene)hydrazine carboxamide] | 36.2 ± 1.78 | 34.23 ± 0.31 |  | 
O=C(N/N=C/c1ccc[nH]1)Nc1cc2c(Nc3ccc(F)c(Cl)c3)ncnc2cc1O[C@H]1CCOC1 [10e, (S,E)-2-((1H-pyrrol-2-Yl)methylene)-N-(4-((3-chloro-4-fluorophenyl)amino)-7-((tetrahydrofuran-3-Yl)oxy)quinazolin-6-Yl)hydrazine carboxamide] | 0.59 ± 0.02 | 2.41 ± 0.32 | 1.21 ± 0.19 | 
O=C(N/N=C/CN1CCCCC1)Nc1cc2c(Nc3ccc(F)c(Cl)c3)ncnc2cc1O[C@H]1CCOC1 [14d, (S,E)-N-(4-((3-chloro-4-fluorophenyl)amino)-7-((tetrahydrofuran-3-yl)oxy)quinazolin-6-yl)-2-(2-(piperidin-1-yl)ethylidene)hydrazine carboxamide] |  |  |  | Freq Sub-G1 (A549 cells [3]): 0.06%; Freq G2 (percentage of cells in G2/M phase) (A549 cells [3]): 23.62%; Freq S (A549 cells [3]): 48.44%; Freq G1 (A549 cells [3]): 27.08%; Morphologic changes of A549 cells (AO staining), apoptosis (A549 cells [4]): can induce A549 cell apoptosis
CN(C)C/C=C/C(=O)Nc1cc2c(Nc3ccc(F)c(Cl)c3)ncnc2cc1O[C@H]1CCOC1 [Afatinib, reference compound] |  |  |  | Freq Sub-G1 (A549 cells [3]): 0.03%; Freq G2 (percentage of cells in G2/M phase) (A549 cells [3]): 47.45%; Freq S (A549 cells [3]): 12.92%; Freq G1 (A549 cells [3]): 39.41%
